According to patent US20020086278A1, “CHROMOGENIC MEDIA CONTAINING BLOOD OR HEMIN” (priority 1999, published 2002):
Like-named read-outs stand apart in the source and are kept apart here.

Tests used:
[1] = test system: S. pneumoniae (stpn); experiment: Example 3: colony color on chromogenic TSA II with 5% sheep blood (chromogen in medium); assay type: cell-based; details: for Colony Color on Various Chromogenic TSA II with 5% Sheep Blood: 18 h
[2] = test system: Staphylococcus aureus (stau); experiment: as above; assay type: cell-based
[3] = test system: E. faecium (enfu); experiment: as above; assay type: cell-based
[4] = test system: Candida albicans (caal); experiment: as above; assay type: cell-based; details: for Colony Color: caal 10231
[5] = test system: Entercoccus faecalis (enfa); experiment: as above; assay type: cell-based; details: for Colony Color: CO2
[6] = test system: Serratia marcescens (sema); experiment: as above; assay type: cell-based; details: for Colony Color: sema 13880, CO2
[7] = test system: Group B Strep. 12386; experiment: Example 1: growth and colony color on plates surface-spread with chromogen; assay type: cell-based; details: for Color: Group B Strep 12386
[8] = test system: S pyogenes (stpy); experiment: Example 3: colony color on chromogenic TSA II with 5% sheep blood (chromogen in medium); assay type: cell-based; details: for Colony Color on Various Chromogenic TSA II with 5% Sheep Blood: 18 h
[9] = test system: Gardnerella vaginalis 14019; experiment: Example 1: growth and colony color on plates surface-spread with chromogen; assay type: cell-based; details: Substrate on Choclate II Agar; G. vag. 14019
[10] = test system: Klebsiella pneumoniae (klpn); experiment: Example 3: colony color on chromogenic TSA II with 5% sheep blood (chromogen in medium); assay type: cell-based; details: for Colony Color: CO2
[11] = test system: E. coli (non-O157) (esco); assay type: cell-based
[12] = test system: Branhamella catarrhalis (brca); experiment: Example 3: colony color on chromogenic TSA II with 5% sheep blood (chromogen in medium); assay type: cell-based; details: for Colony Color: CO2
[13] = test system: Pseudomonas aeruginosa (psae); experiment: as above; assay type: cell-based; details: CO2
[14] = test system: Salmonella spp. (sasp); assay type: cell-based; details: for Colony Color: CO2
[15] = test system: Aeromonas hydrophilia (aehy); experiment: Example 3: colony color on chromogenic TSA II with 5% sheep blood (chromogen in medium); assay type: cell-based; details: CO2
[16] = test system: S. milleri (stmi); experiment: as above; assay type: cell-based; details: for Colony Color: stmi 6249, 21 h
[17] = Precipitate of chromogen on pre-plated media; assay type: physicochemical; details: After 1 week
Experimental: 50 μl of each chromogen solution was added to the surface of each of the following pre-plated media (one chromogen solution per plate):
The solution was dispersed using a spreader and allowed to dry 3-4 hours in a hood.

[18] = test system: Escherichia coli 25922; experiment: Example 1: growth and colony color on plates surface-spread with chromogen; assay type: cell-based; details: TSA II 5SB; E. coli 25922
[19] = test system: cakr 34135; experiment: Example 3: colony color on chromogenic TSA II with 5% sheep blood (chromogen in medium); assay type: cell-based
[20] = test system: Streptococcus agalactiae (stag); experiment: as above; assay type: cell-based
[21] = test system: milu 9341; experiment: as above; assay type: cell-based
[22] = test system: Streptococcus pneumoniae 6303; experiment: Example 1: growth and colony color on plates surface-spread with chromogen; assay type: cell-based; details: TSA Plain; S. pneu: 6303
[23] = test system: S. agalactiae 12386; experiment: Example 2: effect of incubation conditions on colony color formation; assay type: cell-based, Streptococcus agalactiae; details: 0.004 g/plate, 24 h, CO2
[24] = chromogenic TSA II with 5% Sheep Blood, 0.1 g/l, 1 strain tested
[25] = chromogenic TSA II with 5% Sheep Blood, 0.1 g/l, 2 strains tested
[26] = chromogenic TSA II with 5% Sheep Blood, 0.1 g/l, 3 strains tested

OC[C@H]1O[C@@H](Oc2c[nH]c3ccc(Br)c(Cl)c23)[C@H](O)[C@@H](O)[C@@H]1O [X-Glucoside, 5-Br-4-Cl-3-indolyl-β-D-glucopyranoside]
Colony Color ([1]; stpn 1259, CO2, 21 h): 0 | Colony Color ([1]; stpn 1260, CO2, 21 h): 0 | Colony Color ([1]; stpn 1628, CO2, 21 h): 0 | Colony Color ([1]; stpn 6303, CO2, 24 h): 0 | Colony Color ([1]; stpn 6303, air, 24 h): 0 | Colony Color ([1]; stpn 6305, CO2, 24 h): 0 | Colony Color ([1]; stpn 6305, air, 24 h): 0 | Colony Color on Various Chromogenic TSA II with 5% Sheep Blood ([1]; stpn t259, CO2): 0 | Colony Color on Various Chromogenic TSA II with 5% Sheep Blood ([1]; stpn t260, CO2): 0 | Colony Color on Various Chromogenic TSA II with 5% Sheep Blood ([1]; stpn t331, CO2): 0 | Colony Color on Various Chromogenic TSA II with 5% Sheep Blood ([1]; stpn t628, CO2): bg | Colony Color (Summary) ([2]; chromogenic TSA II with 5% Sheep Blood, 0.1 g/l, 5 strains tested): 0 | Colony Color ([2]; stau 1006, CO2, 21 h): 0 | Colony Color ([2]; stau 1007, CO2, 21 h): 0 | Colony Color ([2]; stau 1008, CO2, 21 h): 0 | Colony Color ([2]; stau 1009, CO2, 21 h): 0 | Colony Color ([2]; stau 25923, CO2, 18 h): 0 | Colony Color ([2]; stau 25923, CO2, 24 h): 0 | Colony Color ([2]; stau 25923, air, 24 h): 0 | Colony Color on Various Chromogenic TSA II with 5% Sheep Blood ([2]; stau t006, CO2, 18 h): 0 | Colony Color on Various Chromogenic TSA II with 5% Sheep Blood ([2]; stau t007, CO2, 18 h): 0 | Colony Color on Various Chromogenic TSA II with 5% Sheep Blood ([2]; stau t008, CO2, 18 h): 0 | Colony Color on Various Chromogenic TSA II with 5% Sheep Blood ([2]; stau t009, CO2, 18 h): 0 | Colony Color (Summary) [3, 24]: + | Colony Color ([3]; enfu 49032, CO2, 18 h): db | Colony Color ([4]; CO2, 18 h): 0 | Colony Color ([4]; CO2, 24 h): 0 | Colony Color ([4]; air, 24 h): 0 | Colony Color (Summary) [4, 25]: 0 | Colony Color (Summary) ([5]; chromogenic TSA II with 5% Sheep Blood, 0.1 g/l, 6 strains tested): + | Colony Color ([5]; enfa 597, 18 h): db | Colony Color ([5]; enfa 10741, 18 h): db | Colony Color ([5]; enfa 10741, 21 h): db | Colony Color ([5]; enfa 12953, 18 h): db | Colony Color ([5]; enfa 12953, 21 h): db | Colony Color ([5]; enfa 14506, 18 h): db | Colony Color ([5]; enfa 14506, 21 h): db | Colony Color ([5]; enfa 29212, 18 h): db | Colony Color ([5]; enfa 29212, 21 h): db | Colony Color (Summary) [6, 24]: + | Colony Color ([6]; 18 h): bg | Colony Color ([6]; 21 h): gb | Color ([7]; Choc II): blue | Substrates Producing Color ([7]; Summary of Table I, Group B Strep. 12386): X-Glucoside, X- | Color ([7]; TSA II 5SB): blue | Color ([7]; TSA Plain): blue | Colony Color ([8]; 4 of 7 S. pyogenes, X-glucoside TSA II): light grey blue | Colony Color ([8]; stpy 1027, CO2, 21 h): 0 | Colony Color ([8]; stpy 1028, CO2, 21 h): lgb | Colony Color ([8]; stpy 1029, CO2, 21 h): lgb | Colony Color ([8]; stpy 1030, CO2, 21 h): gb | Colony Color ([8]; stpy 19615, CO2, 21 h): gb | Colony Color ([8]; stpy 19615, air, 21 h): lgb | Colony Color ([8]; stpy 49117, CO2, 21 h): 0 | Colony Color ([8]; stpy 49117, air, 21 h): 0 | Colony Color on Various Chromogenic TSA II with 5% Sheep Blood ([8]; stpy 51339, CO2): 0 | Colony Color ([8]; stpy 51339, CO2, 21 h): 0 | Colony Color ([8]; stpy 51339, air, 21 h): lgb | Colony Color on Various Chromogenic TSA II with 5% Sheep Blood ([8]; stpy t027, CO2): 0 | Colony Color on Various Chromogenic TSA II with 5% Sheep Blood ([8]; stpy t028, CO2): 0 | Colony Color on Various Chromogenic TSA II with 5% Sheep Blood ([8]; stpy t029, CO2): 0 | Colony Color on Various Chromogenic TSA II with 5% Sheep Blood ([8]; stpy t030, CO2): lgb | Growth [9]: < | Colony Color (Summary) [10, 26]: + | Colony Color ([10]; klpn 13883, 21 h): gb | Colony Color ([10]; klpn 33495, 18 h): gb | Colony Color ([10]; klpn 33606, 18 h): gb | Colony Color ([10]; klpn 33606, 21 h): gb | Colony Color (Summary) [11, 26]: 0 | Colony Color ([11]; esco 11775, CO2, 18 h): 0 | Colony Color ([11]; esco 11775, CO2, 21 h): 0 | Colony Color ([11]; esco 25922, CO2, 24 h): 0 | Colony Color ([11]; esco 25922, air, 24 h): 0 | Colony Color ([11]; esco 33605, CO2, 18 h): 0 | Colony Color ([11]; esco 33605, CO2, 21 h): 0 | Colony Color ([12]; brca 25238, 18 h): 0 | Colony Color ([12]; brca 25238, 21 h): 0 | Colony Color ([12]; brca 25240, 18 h): 0 | Colony Color ([12]; brca 25240, 21 h): 0 | Colony Color (Summary) [12, 25]: 0 | Colony Color ([13]; psae 9027, 18 h): 0 | Colony Color ([13]; psae 9027, 21 h): 0 | Colony Color ([13]; psae 15442, 18 h): 0 | Colony Color ([13]; psae 15442, 21 h): 0 | Colony Color ([13]; psae 33607, 18 h): 0 | Colony Color ([13]; psae 33607, 21 h): lgb | Colony Color (Summary) [14, 25]: 0 | Colony Color ([14]; saty 19430, 18 h): 0 | Colony Color ([14]; saty 19430, 21 h): 0 | Colony Color ([14]; satym 14028, 18 h): 0 | Colony Color ([14]; satym 14028, 21 h): 0 | Colony Color ([15]; aehy 7965, 18 h): 0 | Colony Color ([15]; aehy 7965, 21 h): 0 | Colony Color ([15]; aehy 7966, 18 h): 0 | Colony Color ([15]; aehy 49847, 18 h): gb | Colony Color ([15]; aehy 49847, 21 h): gb | Colony Color (Summary) [16, 25]: 0 | Colony Color on Various Chromogenic TSA II with 5% Sheep Blood ([16]; stmi 6242, CO2, 18 h): 0 | Colony Color ([16]; CO2): 0 | Colony Color ([16]; air): 0 | Precipitate on plates after 1 week [17]: some precipitate was evident | Growth [18]: 4 | Colony Color ([19]; CO2, 18 h): 0 | Colony Color ([19]; CO2, 21 h): 0 | Colony hemolytic activity ([20]; Group B Strep on X-glucoside TSA II): slightly reduced | Colony Color ([20]; Group B Strep, 3 of 3 strains, X-glucoside TSA II): blue | Colony Color (Summary) [20, 26]: + | CAMP test ([20]; on X-glucoside TSA II): works well | Colony Color ([20]; stag 4768, air, 21 h): lb | Colony Color ([21]; CO2, 18 h): ly | Colony Color ([21]; CO2, 21 h): 0 | Growth [22]: < | Colony Color ([23]; Chocolate II Agar): blue (d) | Colony Color ([23]; TSA II 5% Sheep Blood): blue (d)
